Measurements taken from PubChem BioAssay (NCI).
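How tested: cells in 96-well plates exposed to compound for 48 hours at five concentrations. GI50 = concentration required for 50% inhibition of growth. TGI denotes the concentration required for complete inhibition of growth.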

Legend:
Assay in all cases: NCI-60 cell line screen, 48 h
[1] = system: TK-10 renal
[2] = system: NCI-H460 lung
[3] = system: SK-MEL-28 melanoma
[4] = system: HOP-92 NSCLC
[5] = system: OVCAR-3 ovarian
[6] = system: MOLT-4 leukemia
[7] = system: NCI-H522 lung
[8] = system: SNB-19 CNS
[9] = system: HS 578T breast
[10] = system: EKVX NSCLC
[11] = system: SR leukemia
[12] = system: SK-OV-3 ovarian
[13] = system: DU-145 prostate
[14] = system: SF-295 CNS
[15] = system: HCT-116 colon
[16] = system: NCI-H226 lung
[17] = system: OVCAR-5 ovarian
[18] = system: OVCAR-4 ovarian
[19] = system: ACHN renal
[20] = system: CAKI-1 renal
[21] = system: M14 melanoma
[22] = system: CCRF-CEM leukemia
[23] = system: PC-3 prostate
[24] = system: UACC-257 melanoma
[25] = system: RPMI-8226 leukemia
[26] = system: UACC-62 melanoma
[27] = system: RXF 393 renal
[28] = system: KM12 colon
[29] = system: 786-0 renal
[30] = system: HCT-15 colon
[31] = system: OVCAR-8 ovarian
[32] = system: SNB-75 CNS
[33] = system: MDA-MB-231 breast
[34] = system: UO-31 renal
[35] = system: U251 CNS
[36] = system: MALME-3M melanoma
[37] = system: BT-549 breast
[38] = system: A549 NSCLC
[39] = system: COLO 205 colon
[40] = system: MCF7 breast
[41] = system: HCC-2998 colon
[42] = system: IGROV1 ovarian
[43] = system: SF-539 CNS
[44] = system: SW-620 colon
[45] = system: HOP-62 NSCLC
[46] = system: SN12C renal
[47] = system: HL-60(TB) leukemia
[48] = system: HT29 colon
[49] = system: SK-MEL-2 melanoma
[50] = system: LOX IMVI melanoma
[51] = system: MDA-MB-435
[52] = system: SF-268 CNS
[53] = system: SK-MEL-5 melanoma
[54] = system: NCI-H23 lung
[55] = system: A498 renal

O=C(CCCCN1CCOCC1)Nc1ccc(Cn2nnc3c2C(=O)c2nnn(Cc4ccc(NC(=O)CCCCN5CCOCC5)cc4)c2C3=O)cc1
GI50 [1]: 2020 nM | TGI [1]: 39600 nM | GI50 [2]: 112 nM | TGI [2]: 530 nM | GI50 [3]: 260 nM | TGI [3]: 642 nM | GI50 [4]: 808 nM | TGI [4]: 1760 nM | GI50 [5]: 167 nM | TGI [5]: 559 nM | GI50 [6]: 183 nM | TGI [6]: 788 nM | GI50 [7]: 113 nM | TGI [7]: 362 nM | GI50 [8]: 187 nM | TGI [8]: 566 nM | GI50 [9]: 1090 nM | TGI [9]: 13800 nM | GI50 [10]: 776 nM | TGI [10]: 1520 nM | GI50 [11]: 406 nM | TGI [11]: 2650 nM | GI50 [12]: 930 nM | TGI [12]: 1830 nM | GI50 [13]: 459 nM | TGI [13]: 1050 nM | GI50 [14]: 381 nM | TGI [14]: 1050 nM | GI50 [15]: 160 nM | TGI [15]: 584 nM | GI50 [16]: 723 nM | TGI [16]: 1840 nM | GI50 [17]: 107 nM | TGI [17]: 244 nM | GI50 [18]: 177 nM | TGI [18]: 769 nM | GI50 [19]: 758 nM | TGI [19]: 1810 nM | GI50 [20]: 1430 nM | TGI [20]: 28200 nM | GI50 [21]: 264 nM | TGI [21]: 903 nM | GI50 [22]: 271 nM | TGI [22]: 2700 nM | GI50 [23]: 404 nM | TGI [23]: 2570 nM | GI50 [24]: 141 nM | TGI [24]: 399 nM | GI50 [25]: 596 nM | TGI [25]: 2030 nM | GI50 [26]: 116 nM | TGI [26]: 341 nM | GI50 [27]: 717 nM | TGI [27]: 1810 nM | GI50 [28]: 574 nM | TGI [28]: 1720 nM | GI50 [29]: 1070 nM | TGI [29]: 3380 nM | GI50 [30]: 629 nM | TGI [30]: 1550 nM | GI50 [31]: 257 nM | TGI [31]: 1140 nM | GI50 [32]: 234 nM | TGI [32]: 806 nM | GI50 [33]: 199 nM | TGI [33]: 50000 nM | GI50 [34]: 1240 nM | TGI [34]: 17500 nM | GI50 [35]: 329 nM | TGI [35]: 879 nM | GI50 [36]: 72 nM | TGI [36]: 163 nM | GI50 [37]: 722 nM | TGI [37]: 1410 nM | GI50 [38]: 397 nM | TGI [38]: 1110 nM | GI50 [39]: 95.9 nM | TGI [39]: 186 nM | GI50 [40]: 84.9 nM | TGI [40]: 195 nM | GI50 [41]: 181 nM | TGI [41]: 594 nM | GI50 [42]: 669 nM | TGI [42]: 1460 nM | GI50 [43]: 132 nM | TGI [43]: 355 nM | GI50 [44]: 201 nM | TGI [44]: 800 nM | GI50 [45]: 745 nM | TGI [45]: 1490 nM | GI50 [46]: 94.6 nM | TGI [46]: 203 nM | GI50 [47]: 157 nM | TGI [47]: 687 nM | GI50 [48]: 178 nM | TGI [48]: 837 nM | GI50 [49]: 351 nM | TGI [49]: 1220 nM | GI50 [50]: 115 nM | TGI [50]: 305 nM | GI50 [51]: 94.8 nM | TGI [51]: 170 nM | GI50 [52]: 400 nM | TGI [52]: 1600 nM | GI50 [53]: 71.7 nM | TGI [53]: 141 nM | GI50 [54]: 154 nM | TGI [54]: 522 nM | GI50 [55]: 906 nM | TGI [55]: 1820 nM
